# Laboratory results taken from patent US20260216140A1, “USE OF ERGOTHIONEINE IN PREPARATION OF PRODUCT FOR PREVENTING OR INHIBITING CELL DAMAGE CAUSED BY ACETALDEHYDE” (BLOOMAGE BIOTECHNOLOGY CORPORATION LIMITED, priority 2022, published 2026).
# Where a name gives a salt, the structure may show the parent alone.
# Experiments:
# Format in all cases: cell-based
# [1] = tested on: CA9-22 cells; assay: MTT cell activity of CA9-22 cells co-cultured with acetaldehyde plus ergothioneine (inhibition of acetaldehyde cell damage); settings: for Cell activity: 1 day, MTT
# Excerpt: • Experimental materials: acetaldehyde, ergothioneine and DMEM medium. • Experimental sample solutions: ergothioneine powder and 17.7M acetaldehyde were respectively diluted with DMEM medium, and then the two solutions were mixed in different ratios to prepare experimental sample solutions with different final concentrations, and the concentrations are shown in Table 3. • Methods: After CA9-22 cells were co-cultured with different experimental sample solutions for 1 day, the experimental sample solutions were removed and MTT was added. After 3 hours, the supernatant was carefully aspirated and dimethyl sulfoxide (DMSO) was added. The absorbance of each well at 550 nm was detected by a microplate reader. The untreated wells was used as control, the absorbance of the sample wells was defined as T, the absorbance of the untreated well was defined as NT, NT was taken as 100%, and the ratio of T/NT of the sample well was taken as the cell activity. On the basis of meeting the requirements of significant difference, the greater the cell activity %, the better the effect of inhibiting cell damage caused by acetaldehyde.
# [2] = tested on: CA9-22 cells; assay: MTT cell activity of CA9-22 cells co-cultured with acetaldehyde (cell damage dose finding); settings: for Cell activity: 1 day, MTT, T/NT vs untreated = 100%
# Experimental: • Experimental materials: acetaldehyde, DMEM medium. • Experimental sample solutions: 17.7 M acetaldehyde was diluted with DMEM medium to prepare experimental sample solutions with different final concentrations, and the concentrations are shown in Table 2. • Methods: After CA9-22 cells were co-cultured with different experimental sample solutions for 1 day, the experimental sample solutions were removed and MTT was added. After 3 hours, the supernatant was carefully aspirated and dimethyl sulfoxide (DMSO) was added. The absorbance of each well at 550 nm was detected by a microplate reader. The untreated well was used as control, the absorbance of the sample well was defined as T, the absorbance of the untreated well was defined as NT, NT was taken as 100%, and the ratio of T/NT of the sample well was taken as the cell activity.
# [3] = tested on: CA9-22 cells; assay: MTT cell activity of CA9-22 cells co-cultured with ergothioneine alone (cytotoxicity); settings: for Cell activity: 1 day, MTT, T/NT vs untreated = 100%
# Experimental: • Experimental materials: ergothioneine, DMEM medium. • Experimental sample solutions: ergothioneine powder was dissolved in DMEM medium to prepare experimental sample solutions with different final concentrations, and the concentrations are shown in Table 1. • Methods: CA9-22 cells purchased from ATCC were co-cultured with different experimental sample solutions for 1 day, then the experimental sample solutions were removed and MTT was added. After 3 hours, the supernatant was carefully aspirated and dimethyl sulfoxide (DMSO) was added. The absorbance of each well at 550 nm was detected by a microplate reader. The untreated well was used as control, the absorbance of the sample well was defined as T, the absorbance of the untreated well was defined as NT, NT was taken as 100%, and the ratio of T/NT of the sample well was taken as the cell activity.
Compound,"Cell activity ([1]; acetaldehyde 0.02 M alone, no ergothioneine (sample 2))","Cell activity ([1]; acetaldehyde 0.02 M alone, no ergothioneine (sample 2), listed as acetaldehyde)",Cell activity ([2]; acetaldehyde 0.0001M),Cell activity ([2]; acetaldehyde 0.001M),Cell activity ([2]; acetaldehyde 0.005M),Cell activity ([2]; acetaldehyde 0.01M),Cell activity ([2]; acetaldehyde 0.02M),"Cell damage after treating cells ([2]; different concentrations of acetaldehyde, more obvious with increasing concentration)",Cell activity ([1]; acetaldehyde 0.02 M + ergothioneine 0.01 μM (sample 3)),Cell activity ([1]; acetaldehyde 0.02 M + ergothioneine 0.05 μM (sample 4)),Cell activity ([1]; acetaldehyde 0.02 M + ergothioneine 0.1 μM (sample 5)),Cell activity ([1]; acetaldehyde 0.02 M + ergothioneine 0.5 μM (sample 6)),Cell activity ([1]; acetaldehyde 0.02 M + ergothioneine 2.5 μM (sample 7)),Cell activity ([1]; acetaldehyde 0.02 M + ergothioneine 12.5 μM (sample 8)),"Effect on cell damage caused by acetaldehyde ([1]; acetaldehyde 0.02 M, ergothioneine added)","Cytotoxicity ([3]; 0.1-12.5 μM, test conditions of Example 1)",Cell activity ([3]; ergothioneine 0.1 μM),Cell activity ([3]; ergothioneine 0.5 μM),Cell activity ([3]; ergothioneine 2.5 μM),Cell activity ([3]; ergothioneine 12.5 μM)
"CC=O [Acetaldehyde, acetaldehyde]",70%,70%,96%,93%,93%,89%,70%,will cause cell damage,,,,,,,,,,,,
"C[N+](C)(C)[C@@H](Cc1c[nH]c(=S)[nH]1)C(=O)[O-] [Ergothioneine, 2-mercaptohistidine trimethyl internal salt]",,,,,,,,,71%,76%,81%,83%,83%,85%,can reduce the cell damage caused by acetaldehyde,no cytotoxicity,101%,100%,107%,106%
